Experimental data reported in patent US5877166A, “Enantiomerically pure 2-aminopurine phosphonate nucleotide analogs as antiviral agents” (priority 1997, dated 1999).
Converted amounts (≈) assume the structure as drawn. Like-named read-outs stand apart in the source and are kept apart here.

Legend:
[1] = tested on: HCMV, Strain D-16; experiment: Antiviral activity (plaque reduction) vs. HCMV, Strain D-16 in MRC-5 cells; assay type: cell-based, human cytomegalovirus (HCMV); conditions: for TI (therapeutic index, ratio of the median cytotoxic dose to the median effective dose): CD50/ED50, 4320 min; for inhibition at 1 µg/mL / inhibition at 3.2 µg/mL / inhibition at 10 µg/mL / inhibition at 32 µg/mL / inhibition at 100 µg/mL / inhibition at 316 µg/mL: Human betaherpesvirus 5, MRC5, 72 h, read-out: % Reduction (plaques); for EC50: Human betaherpesvirus 5, MRC5, 72 hours, MRC-5 cells, read-out: ED50 (median effective antiviral dose)
[2] = in vitro; assay type: cell-based; conditions: human, mrc-5 cells
Experimental: The herpes strain employed was Strain D-16 of HCMV. Continuous passaged MRC-5 cells obtained from the American Type Culture Collection (Bethesda, Md.) were used for testing, with growth medium consisting of Minimum Essential Medium (MEM) supplemented with 0.1% NaHCO3 and […] gentamicin.
To a 96-well microtiter plate containing an established 24-hour monolayer of cells from which the medium had been decanted was added 0.1 mL of varying (one-half log10) concentration of test compound, which incubated on the cell 15 minutes, after which 0.1 mL of virus in a concentration of 320 cell culture 50% infectious doses (CCID50)/0.1 mL was added. The plate was covered with plastic wrap and incubated at 37° C. The cells were examined microscopically after 72 hours. The ED50 (the median effective antiviral dose, i.e., that dose which is effective in 50% of the cells), CD50 (the median cytotoxic dose, i.e., that dose which produces cytotoxicity in 50% of the cells), and TI (the therapeutic index, meaning the ratio of the median cytotoxic dose to the median effective dose) were evaluated.

[3] = tested on: murine cytomegalovirus; experiment: Activity against a murine cytomegalovirus infection in normal BALB/c mice; assay type: in vivo
Experimental: Activities of 1-5 and 1-6
Against a murine cytomegalovirus infection
^a Treatments were given once daily for 5 days starting 24 hours afte

[4] = Toxicity to uninfected BALB/c mice; assay type: in vivo; conditions: mouse, in vivo, once daily for 15 days, read-out: Survivors (%)
Excerpt: (§1) Toxicity of 1-5 to uninfected BALB/c mice.
(§2) ^a Treatments were given once daily for 15 days.
(§3) ^b Difference in weight (in grams) between day 0 and day 16.

[5] = tested on: uninfected BALB/c mice; experiment: Toxicity to uninfected BALB/c mice; assay type: in vivo; conditions: for Kidney Damage (%) / Survivors/Total: once daily for 15 days; for Weight Change: between day 0 and day 16
Excerpt: as §1, §2, §3

[6] = 5 mg/kg/day, once daily for 5 days
[7] = 10 mg/kg/day, once daily for 5 days
[8] = 20 mg/kg/day, once daily for 5 days
[9] = 40 mg/kg/day, once daily for 5 days
[10] = 40 mg/kg/day, once daily for 5 days starting 24 hours after virus challenge

In the case of `Nc1nc2c(ncn2COC(CO)CO)c(=O)[nH]1` [DHPG, 9-[(1,3dihydroxy-2-propoxy)methyl] guanine, reference compound], the “Number of Plaques” value ([1]; 1 μg/mL) is reported as 69.0, the “Number of Plaques” value ([1]; 3.2 μg/mL) is reported as 57.0 and the “Number of Plaques” value ([1]; 10 μg/mL) is reported as 24.5. For the same molecule, the “Number of Plaques” value ([1]; 32 μg/mL) was 2.0, the “Number of Plaques” value ([1]; 100 μg/mL) was 0.0 and the “Number of Plaques” value ([1]; 316 μg/mL) was 0.0. For the same molecule, the “TI (therapeutic index, ratio of the median cytotoxic dose to the median effective dose)” value [1] was greater than 44, the inhibition at 1 µg/mL ([1]; 1 μg/mL) was 0% and the inhibition at 3.2 µg/mL ([1]; 3.2 μg/mL) was 0%. For the same molecule, the inhibition at 10 µg/mL ([1]; 10 μg/mL) was 70%, the inhibition at 32 µg/mL ([1]; 32 μg/mL) was 98% and the inhibition at 100 µg/mL ([1]; 100 μg/mL) was 100%. For the same molecule, the inhibition at 316 µg/mL ([1]; 316 μg/mL) was 100%, the EC50 [1] was 7.2 µg/mL (≈ 28.2 µM) and the CC50 at 72 h [2] was greater than 316 µg/mL.

For `Nc1ncc2ncn(CO[C@@H]3CCP(=O)(O)OC3)c2n1` [Compound 1-6], the “Mean Day to Death” value [3, 6] was 6.4 ± 0.5 days, the “Survivors (%)” value [3, 6] was 0% and the Survivors/Total [3, 6] was 0/10. For the same molecule, the “Mean Day to Death” value [3, 7] was 7.4 ± 2.0 days, the “Survivors (%)” value [3, 7] was 0% and the Survivors/Total [3, 7] was 0/10. The “Mean Day to Death” value [3, 8] was 6.1 ± 0.4 days, the “Survivors (%)” value [3, 8] was 30% and the Survivors/Total [3, 8] was 3/10. For the same molecule, the “Mean Day to Death” value [3, 9] was 8.3 ± 4.9 days, the “Survivors (%)” value [3, 9] was 40% and the Survivors/Total [3, 10] was 4/10. For the same molecule, the “Number of Plaques” value ([1]; 1 μg/mL) was 51.0, the “Number of Plaques” value ([1]; 3.2 μg/mL) was 56.0 and the “Number of Plaques” value ([1]; 10 μg/mL) was 33.0. The “Number of Plaques” value ([1]; 32 μg/mL) was 6.5, the “Number of Plaques” value ([1]; 100 μg/mL) was 0.0 and the “Number of Plaques” value ([1]; 316 μg/mL) was 0.0. For the same molecule, the “% Reduction (given as toxic)” value ([1]; 1000 μg/mL) was “toxic”, the “Number of Plaques (given as toxic)” value ([1]; 1000 μg/mL) was “toxic” and the “TI (therapeutic index, ratio of the median cytotoxic dose to the median effective dose)” value [1] was 73. It also gave an inhibition at 1 µg/mL ([1]; 1 μg/mL) of 37%, an inhibition at 3.2 µg/mL ([1]; 3.2 μg/mL) of 31% and an inhibition at 10 µg/mL ([1]; 10 μg/mL) of 59%. It also gave an inhibition at 32 µg/mL ([1]; 32 μg/mL) of 92%, an inhibition at 100 µg/mL ([1]; 100 μg/mL) of 100% and an inhibition at 316 µg/mL ([1]; 316 μg/mL) of 100%. It also gave an EC50 [1] of 6.7 µg/mL (≈ 22.4 µM) and a CC50 at 72 h [2] of 487 µg/mL (≈ 1630 µM).

With `Nc1ncc2ncn(CO[C@@H](CO)CCP(=O)(O)O)c2n1` [Compound 1-5, 2-Amino-9-[(R(-)-1-hydroxymethyl-3-phosphono)-1-propyloxymethyl]-9H-purine] the “Mean Day to Death” value [3, 6] was 9.6 ± 4.6 days, the “Survivors (%)” value [3, 6] was 50% and the Survivors/Total [3, 6] was 5/10. For the same molecule, the “Mean Day to Death” value [3, 7] was 10.0 ± 3.6 days, the “Survivors (%)” value [3, 7] was 70% and the Survivors/Total [3, 7] was 7/10. The “Mean Day to Death” value [3, 8] was 11.5 ± 0.7 days, the “Survivors (%)” value [3, 8] was 80% and the Survivors/Total [3, 8] was 8/10. For the same molecule, the “Mean Day to Death” value [3, 9] was greater than 21 days, the “Survivors (%)” value [3, 9] was 100% and the Survivors/Total [3, 10] was 10/10. The survival ([4]; 100 mg/kg/day) was 100%, the survival ([4]; 200 mg/kg/day) was 100% and the survival ([4]; 400 mg/kg/day) was 100%. The survival ([4]; 600 mg/kg/day) was 100%, the “Kidney Damage (%)” value ([5]; 100 mg/kg/day) was 0% and the Survivors/Total ([5]; 100 mg/kg/day) was 3/3. The “Weight Change” value ([5]; 100 mg/kg/day) was “+7.0 grams”, the “Kidney Damage (%)” value ([5]; 200 mg/kg/day) was 0% and the Survivors/Total ([5]; 200 mg/kg/day) was 3/3. The “Weight Change” value ([5]; 200 mg/kg/day) was “+7.8 grams”, the “Kidney Damage (%)” value ([5]; 400 mg/kg/day) was 0% and the Survivors/Total ([5]; 400 mg/kg/day) was 3/3. The “Weight Change” value ([5]; 400 mg/kg/day) was “+6.6 grams”, the “Kidney Damage (%)” value ([5]; 600 mg/kg/day) was 0% and the Survivors/Total ([5]; 600 mg/kg/day) was 3/3. The “Weight Change” value ([5]; 600 mg/kg/day) was “+4.5 grams”.
